Patent US20150038668A1, “Branched Polyesters Based On Citric Acid, Their Preparation And Use” (BASF SE, priority 2010, published 2015)
Values after ≈ are worked out from the molar mass of the structure shown.

Assay: physchem
Settings: thermodynamic from solid
Description: To increase the solubility of the low-solubility active ingredients, 40 ml of a 15% polymer solution (in DI water) were prepared. […] If the added active ingredient dissolved, further active ingredient was added, to supersaturation, followed by stirring for a further 72 hours. The resulting suspension was filtered through a 0.45 μm membrane filter and the dissolved fraction of active ingredient was determined by means of UV/Vis spectroscopy. The same method was also carried for the active ingredients alone, in order to determine the solubility of the pure active ingredient and to be able to determine the improvement through salt formation. For comparison, the solubility in 0.1 normal HCl as well was ascertained, representing the solubility of the hydrochloride salt of the corresponding base.

| Structure (SMILES) | solubility thermodynamic at 72 h (simulated gastric fluid) [µg/mL] | solubility thermodynamic at 72 h (water) [µg/mL] |
| --- | --- | --- |
| CN(C)C(=O)C(CCN1CCC(O)(c2ccc(Cl)cc2)CC1)(c1ccccc1)c1ccccc1 [Loperamide, loperamide] | 200 (≈ 419 µM) | 70 (≈ 147 µM) |
| NC(N)=Nc1nc(CSCCC(N)=NS(N)(=O)=O)cs1 [Famotidine, famotidine] | 32100 (≈ 95100 µM) | 1000 (≈ 2960 µM) |
